Laboratory results as given in PubChem BioAssay (NCI).
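Cultured in 96-well plates, cells were exposed to test compound for 48 hours across five concentrations. GI50 is the concentration that inhibits growth by half. TGI denotes the concentration required for complete inhibition of growth.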

Experiments:
Test in all cases: NCI tumour cell line growth inhibition, 48 h
[1] = test system: U251 CNS
[2] = test system: HCT-15 colon
[3] = test system: NCI-H460 lung
[4] = test system: NCI-H226 lung
[5] = test system: OVCAR-8 ovarian
[6] = test system: PC-3 prostate
[7] = test system: HT29 colon
[8] = test system: MDA-MB-231 breast
[9] = test system: UACC-257 melanoma
[10] = test system: NCI-H23 lung
[11] = test system: K-562 leukemia
[12] = test system: CCRF-CEM leukemia
[13] = test system: ACHN renal
[14] = test system: HOP-62 NSCLC
[15] = test system: DU-145 prostate
[16] = test system: M14 melanoma
[17] = test system: NCI/ADR-RES ovarian
[18] = test system: SF-295 CNS
[19] = test system: NCI-H522 lung
[20] = test system: SK-MEL-2 melanoma
[21] = test system: OVCAR-3 ovarian
[22] = test system: SF-268 CNS
[23] = test system: A549 NSCLC
[24] = test system: 786-0 renal
[25] = test system: T-47D breast
[26] = test system: IGROV1 ovarian
[27] = test system: HCT-116 colon
[28] = test system: UO-31 renal
[29] = test system: CAKI-1 renal
[30] = test system: SK-MEL-5 melanoma
[31] = test system: HCC-2998 colon
[32] = test system: OVCAR-4 ovarian
[33] = test system: SNB-75 CNS
[34] = test system: TK-10 renal
[35] = test system: A498 renal
[36] = test system: KM12 colon
[37] = test system: HS 578T breast
[38] = test system: RXF 393 renal
[39] = test system: MOLT-4 leukemia
[40] = test system: EKVX NSCLC
[41] = test system: MCF7 breast
[42] = test system: SNB-19 CNS
[43] = test system: SR leukemia
[44] = test system: UACC-62 melanoma
[45] = test system: SF-539 CNS
[46] = test system: SK-OV-3 ovarian
[47] = test system: HOP-92 NSCLC
[48] = test system: SW-620 colon
[49] = test system: OVCAR-5 ovarian
[50] = test system: SK-MEL-28 melanoma
[51] = test system: MDA-MB-435
[52] = test system: LOX IMVI melanoma
[53] = test system: SN12C renal
[54] = test system: RPMI-8226 leukemia
[55] = test system: BT-549 breast
[56] = test system: COLO 205 colon

Work on `O=c1[nH]nc(-c2nn(-c3ccc(Cl)cc3)cc2O)o1` yielded a GI50 [1] of 25 nM, a TGI [1] of over 100000 nM and a GI50 [2] of 152 nM. It also gave a TGI [2] of over 100000 nM, a GI50 [3] of 42.9 nM and a TGI [3] of over 100000 nM. It also gave a GI50 [4] of 133 nM, a TGI [4] of 3730 nM and a GI50 [5] of 317 nM. For the same molecule, the TGI [5] was over 100000 nM, the GI50 [6] was 401 nM and the TGI [6] was over 100000 nM. For the same molecule, the GI50 [7] was 2020 nM, the TGI [7] was over 100000 nM and the GI50 [8] was 4560 nM. For the same molecule, the TGI [8] was over 50400 nM, the GI50 [9] was 610 nM and the TGI [9] was over 100000 nM. It also gave a GI50 [10] of 108 nM, a TGI [10] of 673 nM and a GI50 [11] of 46 nM. It also gave a GI50 [12] of 303 nM, a TGI [12] of over 62100 nM and a GI50 [13] of 142 nM. It also gave a TGI [13] of over 100000 nM, a GI50 [14] of 99 nM and a TGI [14] of 36000 nM. The GI50 [15] was 56.2 nM, the TGI [15] was 1450 nM and the GI50 [16] was 132 nM. For the same molecule, the TGI [16] was 13000 nM, the GI50 [17] was 121 nM and the TGI [17] was 2750 nM. For the same molecule, the GI50 [18] was 51.8 nM, the TGI [18] was over 100000 nM and the GI50 [19] was 696 nM. For the same molecule, the TGI [19] was over 100000 nM, the GI50 [20] was 536 nM and the TGI [20] was 46200 nM. It also gave a GI50 [21] of 472 nM, a TGI [21] of 12500 nM and a GI50 [22] of 117 nM. For the same molecule, the TGI [22] was over 100000 nM, the GI50 [23] was 91.3 nM and the TGI [23] was over 100000 nM. The GI50 [24] was 519 nM, the TGI [24] was 36500 nM and the GI50 [25] was 221 nM. The TGI [25] was over 100000 nM, the GI50 [26] was 117 nM and the TGI [26] was over 100000 nM. It also gave a GI50 [27] of 71.8 nM, a TGI [27] of 927 nM and a GI50 [28] of 331 nM. It also gave a TGI [28] of over 34300 nM, a GI50 [29] of 156 nM and a TGI [29] of 13000 nM. It also gave a GI50 [30] of 201 nM, a TGI [30] of 1440 nM and a GI50 [31] of 238 nM. The TGI [31] was 3500 nM, the TGI [32] was over 100000 nM and the GI50 [33] was 227 nM. For the same molecule, the TGI [33] was over 100000 nM, the GI50 [34] was 37.6 nM and the TGI [34] was 276 nM. The GI50 [35] was 87 nM, the TGI [35] was 464 nM and the GI50 [36] was 134 nM. The GI50 [37] was 61.9 nM, the TGI [37] was 3160 nM and the GI50 [38] was 741 nM. For the same molecule, the TGI [38] was over 72400 nM, the GI50 [39] was 53.7 nM and the TGI [39] was 944 nM. For the same molecule, the GI50 [40] was 92.5 nM, the TGI [40] was 904 nM and the GI50 [41] was 340 nM. It also gave a TGI [41] of over 100000 nM, a GI50 [42] of 187 nM and a TGI [42] of over 100000 nM. It also gave a GI50 [43] of 33.4 nM, a TGI [43] of 266 nM and a GI50 [44] of 166 nM. For the same molecule, the TGI [44] was 2820 nM, the GI50 [45] was 74.1 nM and the TGI [45] was 2240 nM. It also gave a GI50 [46] of 385 nM, a TGI [46] of over 100000 nM and a GI50 [47] of 280 nM. It also gave a GI50 [48] of 470 nM, a TGI [48] of over 100000 nM and a GI50 [49] of 499 nM. It also gave a TGI [49] of over 100000 nM, a GI50 [50] of 25100 nM and a TGI [50] of over 100000 nM. The GI50 [51] was 20.5 nM, the GI50 [52] was 194 nM and the TGI [52] was over 43300 nM. It also gave a GI50 [53] of 119 nM, a TGI [53] of 5770 nM and a GI50 [54] of 172 nM. It also gave a GI50 [55] of 19.1 nM, a TGI [55] of 219 nM and a GI50 [56] of 3250 nM. For the same molecule, the TGI [56] was over 100000 nM.
